{"source": "BindingDB's records for patent US20250082630", "about": "(AstraZeneca, 2025)", "key": {"[1]": {"biological_target": "Poly [ADP-ribose] polymerase 1 (Homo sapiens, UniProt P09874)", "sequence (P09874 whole entry)": "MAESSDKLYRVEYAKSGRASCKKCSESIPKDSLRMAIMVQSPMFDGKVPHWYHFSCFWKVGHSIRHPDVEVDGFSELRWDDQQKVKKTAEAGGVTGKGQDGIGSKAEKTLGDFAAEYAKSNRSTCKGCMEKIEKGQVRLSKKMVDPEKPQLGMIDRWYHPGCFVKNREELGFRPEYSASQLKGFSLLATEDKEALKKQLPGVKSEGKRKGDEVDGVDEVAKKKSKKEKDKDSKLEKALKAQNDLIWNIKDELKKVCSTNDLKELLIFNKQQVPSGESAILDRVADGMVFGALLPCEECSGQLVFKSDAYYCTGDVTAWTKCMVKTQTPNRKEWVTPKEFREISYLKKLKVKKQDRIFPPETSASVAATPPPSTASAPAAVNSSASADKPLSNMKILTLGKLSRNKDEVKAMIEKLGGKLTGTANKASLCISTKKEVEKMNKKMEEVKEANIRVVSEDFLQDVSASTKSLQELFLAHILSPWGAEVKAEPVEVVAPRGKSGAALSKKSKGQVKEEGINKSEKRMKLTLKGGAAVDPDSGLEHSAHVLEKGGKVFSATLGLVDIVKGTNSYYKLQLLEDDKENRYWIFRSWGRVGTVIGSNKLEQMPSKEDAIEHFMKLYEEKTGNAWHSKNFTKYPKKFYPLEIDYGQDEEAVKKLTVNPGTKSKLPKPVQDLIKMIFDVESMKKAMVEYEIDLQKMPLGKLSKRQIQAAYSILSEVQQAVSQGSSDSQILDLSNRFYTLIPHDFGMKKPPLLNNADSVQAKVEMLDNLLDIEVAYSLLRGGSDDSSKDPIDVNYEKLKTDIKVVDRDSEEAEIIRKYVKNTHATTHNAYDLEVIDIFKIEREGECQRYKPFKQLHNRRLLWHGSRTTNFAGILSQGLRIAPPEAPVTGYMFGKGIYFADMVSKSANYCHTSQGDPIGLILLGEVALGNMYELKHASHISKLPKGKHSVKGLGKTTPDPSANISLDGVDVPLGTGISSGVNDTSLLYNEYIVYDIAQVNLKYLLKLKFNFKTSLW", "experiment": "PARP Fluorescence Anisotropy Binding Assay", "experimental": "(§1) Recombinant full length 6HIS tagged PARP1 protein was diluted to 6 nM with 50 mM Tris pH 8, 0.001% Triton X100, 10 mM MgCl2, 150 mM NaCl and incubated for four hours with an equivalent volume of 2 nM fluorescent probe diluted with 50 mM Tris pH 8, 0.001% Triton X100, 10 mM MgCl2, 150 mM NaCl. The final DMSO concentration of the probe was kept below 1% (v/v).Recombinant full length PARP2 protein was diluted to 6 nM with 50 mM Tris pH 8, 0.001% Triton X100, 10 mM MgCl2, 150 mM NaCl and incubated for four hours with an equivalent volume of 2 nM fluorescent probe diluted with 50 mM Tris pH 8, 0.001% Triton X100, 10 mM MgCl2, 150 mM NaCl. The final DMSO concentration of the probe was kept below 1% (v/v).Recombinant full length PARP3 protein was diluted to 100 nM with 50 mM Tris pH 8, 0.001% Triton X100, 10 mM MgCl2, 150 mM NaCl and incubated for four hours with an equivalent volume of 6 nM fluorescent probe diluted with 50 mM Tris pH 8, 0.001% Triton X100, 10 mM MgCl2, 150 mM NaCl."}, "[2]": {"biological_target": "Poly [ADP-ribose] polymerase 2 (Homo sapiens, UniProt Q9UGN5)", "sequence (Q9UGN5 whole entry)": "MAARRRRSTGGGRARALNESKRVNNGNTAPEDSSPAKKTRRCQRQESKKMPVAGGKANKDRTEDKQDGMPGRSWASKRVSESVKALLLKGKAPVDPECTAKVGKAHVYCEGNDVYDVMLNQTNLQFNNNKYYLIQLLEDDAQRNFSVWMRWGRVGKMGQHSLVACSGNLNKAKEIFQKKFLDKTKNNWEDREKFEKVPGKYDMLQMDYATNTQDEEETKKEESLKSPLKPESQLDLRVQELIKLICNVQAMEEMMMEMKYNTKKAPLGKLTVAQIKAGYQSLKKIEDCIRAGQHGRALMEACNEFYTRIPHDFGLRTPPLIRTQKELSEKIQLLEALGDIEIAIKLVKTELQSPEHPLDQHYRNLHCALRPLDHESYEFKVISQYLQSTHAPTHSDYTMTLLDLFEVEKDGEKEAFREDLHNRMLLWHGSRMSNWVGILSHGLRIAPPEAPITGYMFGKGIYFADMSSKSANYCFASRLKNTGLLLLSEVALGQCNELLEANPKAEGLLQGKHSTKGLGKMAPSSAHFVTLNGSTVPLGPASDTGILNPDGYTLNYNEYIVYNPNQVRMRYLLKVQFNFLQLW", "experiment": "PARP Fluorescence Anisotropy Binding Assay", "experimental": "as §1"}}}
{"smiles": "CNC(=O)c1ccc(N2CCN(Cc3ccc4nc(OC)c(=O)[nH]c4c3C)CC2)c(F)n1", "note": "[US20250082630, Example 58]", "values": [{"measurement": "IC50", "setting": "[1]", "value": 8, "unit": "nM"}, {"measurement": "IC50", "setting": "[2]", "value": "> 100000", "unit": "nM"}]}
